In US20130079370A1, “Method for the Inhibition of Deubiquitinating Activity” (priority 2011, published 2013):

Test system: HTC-116, hTERT-RPE1 and PBMC
Test: Cytotoxic activity, FMCA method
Type: cell-based
Settings: 72 h
Experimental: For the FMCA assay cells were seeded in the drug-prepared 384-well plates using the pipetting robot Precision 2000 (Bio-Tek Instruments Inc., Winooski, Vt.). The plates were incubated for 72 h and then transferred to an integrated HTS SAIGAN Core System consisting of an ORCA robot (Beckman Coulter) with CO2 incubator (Cytomat 2C, Kendro, Sollentuna, Sweden), dispenser module (Multidrop 384, Titertek, Huntsville, Ala.), washer module (ELx 405, Bio-Tek Instruments Inc), delidding station, plate hotels, barcode reader (Beckman Coulter), liquid handler (Biomek 2000, Beckman Coulter) and a multipurpose reader (FLUOstar Optima, BMG Labtech GmbH, Offenburg, Germany) for automated FMCA. Survival index (SI) is defined as the fluorescence of test wells in percentage of controls with blank values subtracted.
HCT-116 cells were treated with increasing concentrations of b-AP15 for 24 h and the levels of apoptosis were determined by measuring the levels of caspase cleaved cytokeratin-18 (CK18) by ELISA assay (FIG. 6a). HCT-116 cells were treated with increasing concentrations of b-AP15 for 48 h). Cell viability was determined by acid-phosphatase activity assay. […] IC50 was determined from log concentration/effect curves in Graph Pad Prism (GraphPad Software Inc. CA, USA) using non-linear regression analysis (four parameter model with variable Hill slope) (FIGS. 6e, 6f). […]

C=CC(=O)N1C/C(=C\c2ccc([N+](=O)[O-])cc2)C(=O)/C(=C/c2ccc([N+](=O)[O-])cc2)C1 [b-AP15, (3E,5E)-3,5-bis[(4-nitrophenyl)methylidene]-1-(prop-2-enoyl)piperidin-4-one]
cytotoxic activity, tumor versus normal cell types: more toxic to the colon carcinoma cell line HTC-116 than to immortalized retinal pigment epithelial cells (hTERT-RPE1) and peripheral blood mononuclear cells (PBMC)
